# Results taken from patent publication US9663516B2, “Bicyclic-pyrimidinedione compounds” (MyoKardia, Inc., priority 2014, dated 2017).
# Target: bovine cardiac myosin (Bos taurus, UniProt Q9BE39)
# Test: Myosin inhibition assay (PK/LDH-coupled ATPase, bovine cardiac myofibrils)
# Type: biochemical
# Conditions: calcium concentration giving 50% activation, pH 6.8, read-out: bcMF pCa_6 IC50
# Description: Small molecule agents were assessed for their ability to inhibit the enzymatic activity of bovine cardiac myosin using a biochemical assay that couples the release of ADP (adenosine diphosphate) from cardiac myosin to an enzymatic coupling system consisting of pyruvate kinase and lactate dehydrogenase (PK/LDH) and monitoring the absorbance decrease of NADH (at 340 nm) as a function of time. PK converts ADP to ATP (adenosine triphosphate) by converting PEP (phosphoenolpyruvate) to pyruvate. Pyruvate is then converted to lactate by LDH by converting NADH (nicotinamide adenine dinucleotide) to NAD (oxidized nicotinamide adenine dinucleotide). […] Prior to testing small molecule agents, the bovine myofibrils were assessed for their calcium responsiveness and the calcium concentration that achieves a 50% activation of the myofibril system was chosen as the final condition for assessing the inhibitory activity of the small molecule agents. All enzymatic activity was measured in a buffered solution containing 12 mM PIPES (piperazine-N,N′-bis(2-ethanesulfonic acid), 2 mM magnesium chloride at pH 6.8 (PM12 buffer). Final assay conditions were 1 mg/mL of bovine cardiac myofibrils, 0.4 mM PK/LDH, 50 uM ATP, 0.1 mg/mL BSA (bovine serum albumin), 10 ppm antifoam, 2 mM BME, 0.5 mM NADH, 1.5 mM PEP at the desired free calcium concentration required to achieve 50% activation of the myofibrils.
# A dilution series of compound was created in DMSO such that the final desired concentration of compound would be achieved in a volume of 30 μL with a fixed DMSO concentration of 3.3% (v/v). Typically 1 μL of the dilution series were added to 384 well plate to achieve an 10 point dose response. Following the addition of 14 μL of a solution containing bovine cardiac myofibrils, PK/LDH and a solution of calcium (that achieved 50% activation), the enzymatic reaction was started with the addition of 15 μL of a solution containing ATP, PEP and NADH. The reaction progress was followed in a PerkinElmer Envision plate reader at ambient temperature using clear bottom plates. The plate reader was configured to read absorbance at 340 nm in kinetics mode for 15 minutes. Data were recorded as the slope of the absorbance response to time. The slopes of the absorbance response as a function of time were normalized to slopes on the plate containing DMSO. This normalized rate was then plotted as a function of small molecule concentration and the data was fitted to a four-parameter fit using EXCEL XLfit. The IC50 is the concentration at which fifty percent of the total response is inhibited.
# bovine cardiac myosin, sequence (Q9BE39 whole entry): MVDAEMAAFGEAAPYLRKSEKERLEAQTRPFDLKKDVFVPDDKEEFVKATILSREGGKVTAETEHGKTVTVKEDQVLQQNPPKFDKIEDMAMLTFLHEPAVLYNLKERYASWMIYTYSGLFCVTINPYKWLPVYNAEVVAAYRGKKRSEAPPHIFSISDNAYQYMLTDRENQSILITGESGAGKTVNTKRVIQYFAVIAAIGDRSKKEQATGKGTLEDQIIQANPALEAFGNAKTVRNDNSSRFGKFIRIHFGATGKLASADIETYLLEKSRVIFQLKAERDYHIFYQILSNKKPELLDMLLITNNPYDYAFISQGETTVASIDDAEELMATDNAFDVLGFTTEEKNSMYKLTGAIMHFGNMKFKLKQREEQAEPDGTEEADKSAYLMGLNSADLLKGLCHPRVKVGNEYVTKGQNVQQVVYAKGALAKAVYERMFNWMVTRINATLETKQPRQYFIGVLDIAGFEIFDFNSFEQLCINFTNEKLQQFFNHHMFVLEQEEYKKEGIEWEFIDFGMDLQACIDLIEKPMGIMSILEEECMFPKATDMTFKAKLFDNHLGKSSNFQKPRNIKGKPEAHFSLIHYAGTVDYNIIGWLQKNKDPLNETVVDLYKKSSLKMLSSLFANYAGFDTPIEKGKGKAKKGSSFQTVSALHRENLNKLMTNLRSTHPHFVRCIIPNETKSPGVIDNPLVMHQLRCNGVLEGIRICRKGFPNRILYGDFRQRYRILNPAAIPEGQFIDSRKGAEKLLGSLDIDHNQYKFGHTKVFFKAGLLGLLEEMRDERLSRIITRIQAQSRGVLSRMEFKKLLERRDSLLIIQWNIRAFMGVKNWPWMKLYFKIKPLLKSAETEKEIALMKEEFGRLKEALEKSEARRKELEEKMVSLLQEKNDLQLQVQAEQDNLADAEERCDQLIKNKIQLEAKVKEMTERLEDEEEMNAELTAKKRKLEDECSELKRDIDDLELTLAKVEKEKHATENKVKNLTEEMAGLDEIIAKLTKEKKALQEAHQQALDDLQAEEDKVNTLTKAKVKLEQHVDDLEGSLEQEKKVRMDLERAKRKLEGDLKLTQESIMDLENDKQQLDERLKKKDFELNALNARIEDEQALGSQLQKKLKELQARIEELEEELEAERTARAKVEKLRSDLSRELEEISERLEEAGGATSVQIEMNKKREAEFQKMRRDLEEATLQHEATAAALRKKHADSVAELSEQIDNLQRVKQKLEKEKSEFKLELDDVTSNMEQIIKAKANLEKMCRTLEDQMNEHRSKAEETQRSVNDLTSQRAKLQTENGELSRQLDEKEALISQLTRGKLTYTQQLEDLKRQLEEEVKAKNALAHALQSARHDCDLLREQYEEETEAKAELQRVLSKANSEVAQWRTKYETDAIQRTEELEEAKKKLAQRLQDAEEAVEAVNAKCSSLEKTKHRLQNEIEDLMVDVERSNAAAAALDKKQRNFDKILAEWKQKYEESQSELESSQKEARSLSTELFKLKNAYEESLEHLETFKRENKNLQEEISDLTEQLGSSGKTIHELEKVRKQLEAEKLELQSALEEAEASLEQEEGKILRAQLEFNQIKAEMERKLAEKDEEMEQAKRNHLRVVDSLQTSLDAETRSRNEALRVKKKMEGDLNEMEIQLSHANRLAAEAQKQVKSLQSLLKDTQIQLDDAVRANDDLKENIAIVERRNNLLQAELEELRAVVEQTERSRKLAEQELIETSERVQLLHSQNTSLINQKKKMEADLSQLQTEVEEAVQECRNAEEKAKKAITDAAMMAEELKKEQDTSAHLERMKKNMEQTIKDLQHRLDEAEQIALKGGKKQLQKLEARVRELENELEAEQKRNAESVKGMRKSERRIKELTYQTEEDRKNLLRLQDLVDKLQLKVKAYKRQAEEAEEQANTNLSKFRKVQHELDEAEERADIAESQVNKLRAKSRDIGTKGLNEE
# bovine cardiac myosin, sequence (P85100 whole entry partner): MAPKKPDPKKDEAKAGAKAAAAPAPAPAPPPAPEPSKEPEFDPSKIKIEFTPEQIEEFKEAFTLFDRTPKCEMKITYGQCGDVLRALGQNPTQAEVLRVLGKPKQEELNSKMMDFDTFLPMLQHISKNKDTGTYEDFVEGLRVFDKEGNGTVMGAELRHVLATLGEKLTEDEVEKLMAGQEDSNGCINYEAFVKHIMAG
# bovine cardiac myosin, sequence (Q3SZE5 whole entry partner): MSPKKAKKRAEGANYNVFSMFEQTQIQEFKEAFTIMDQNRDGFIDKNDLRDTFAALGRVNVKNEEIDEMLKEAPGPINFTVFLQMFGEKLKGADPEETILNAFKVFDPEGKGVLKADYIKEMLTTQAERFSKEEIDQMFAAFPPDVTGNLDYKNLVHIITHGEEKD
row,IC50 [µM],Compound
1,1 to 15,"CC(C)n1c(=O)[nH]c2c(c1=O)C[C@H](c1ccccc1)N2 (single isomer, unassigned) [Compound 7]"
2,> 15,"CC(C)n1c(=O)[nH]c2c(c1=O)C[C@@H](c1ccccc1)N2 (single isomer, unassigned) [Compound 8]"
3,1 to 15,"O=c1[nH]c2c(c(=O)n1-c1ccccc1)CC[C@H](c1ccc(F)cc1)N2 [Compound 3, (R)-7-(4-Fluorophenyl)-3-phenyl-5,6,7,8-tetrahydropyrido[2,3-d]pyrimidine-2,4(1H,3H)-dione]"
4,1 to 15,"COc1cccc([C@H]2CCc3c([nH]c(=O)n(C(C)C)c3=O)N2)c1 [Compound 5, (R)-3-Isopropyl-7-(3-methoxyphenyl)-5,6,7,8-tetrahydropyrido[2,3-d]pyrimidine-2,4(1H,3H)-dione]"
5,> 15,"CC(C)n1c(=O)[nH]c2c(c1=O)CCCN2 [Compound 10, 3-Isopropyl-5,6,7,8-tetrahydropyrido[2,3-d]pyrimidine-2,4(1H,3H)-dione]"
6,1 to 15,"CCn1c(=O)[nH]c2c(c1=O)CC[C@H](c1cccc(Cl)c1)N2 [Compound 11, (R)-7-(3-Chlorophenyl)-3-ethyl-5,6,7,8-tetrahydropyrido[2,3-d]pyrimidine-2,4(1H,3H)-dione]"
7,< 1,CC(C)n1c(=O)[nH]c2c(c1=O)CC[C@H](c1cccc(Cl)c1)N2 [Compound 12]
8,1 to 15,CCn1c(=O)[nH]c2c(c1=O)CC[C@H](c1ccc(F)c(Cl)c1)N2 [Compound 13]
9,1 to 15,CCn1c(=O)[nH]c2c(c1=O)CC[C@H](c1ccc(Cl)cc1)N2 [Compound 15]
10,1 to 15,CCn1c(=O)[nH]c2c(c1=O)CC[C@H](c1ccc(F)cc1F)N2 [Compound 16]
11,1 to 15,CC(C)n1c(=O)[nH]c2c(c1=O)CC[C@H](c1cc(F)ccc1F)N2 [Compound 17]
12,1 to 15,O=c1[nH]c2c(c(=O)n1CC1CC1)CC[C@H](C1CCC(F)(F)CC1)N2 [Compound 19]
13,1 to 15,O=c1[nH]c2c(c(=O)n1C1CC1)CC[C@H](C1CCC(F)(F)CC1)N2 [Compound 21]
14,< 1,CC(C)Cn1c(=O)[nH]c2c(c1=O)CC[C@H](C1CCC(F)(F)CC1)N2 [Compound 23]
15,1 to 15,O=c1[nH]c2c(c(=O)n1CC(F)F)CC[C@H](c1cccc(F)c1)N2 [Compound 24]
16,> 15,CCn1c(=O)[nH]c2c(c1=O)CC[C@H](c1cc(F)cc(F)c1)N2 [Compound 25]
17,1 to 15,O=c1[nH]c2c(c(=O)n1-c1ccccc1)CC[C@H](c1ccccc1)N2 [Compound 26]
18,1 to 15,CC(C)n1c(=O)[nH]c2c(c1=O)CC[C@H](C1CCOCC1)N2 [Compound 27]
19,1 to 15,O=c1[nH]c2c(c(=O)n1C1CCC1)CC[C@H](c1ccccc1)N2 [Compound 28]
20,1 to 15,CC[C@H](C)n1c(=O)[nH]c2c(c1=O)CC[C@H](C1CCC(F)(F)CC1)N2 [Compound 29]
21,< 1,CCCn1c(=O)[nH]c2c(c1=O)CC[C@H](C1CCC(F)(F)CC1)N2 [Compound 30]
22,1 to 15,O=c1[nH]c2c(c(=O)n1C1CCOCC1)CC[C@H](c1ccccc1)N2 [Compound 32]

row,IC50 [µM],Compound
1,< 1,O=c1[nH]c2c(c(=O)n1-c1ccc(F)cn1)CC[C@H](C1CCC(F)(F)CC1)N2 [Compound 33]
2,1 to 15,O=c1[nH]c2c(c(=O)n1-c1cccc(F)n1)CC[C@H](c1ccccc1)N2 [Compound 34]
3,1 to 15,O=c1[nH]c2c(c(=O)n1-c1ccccn1)CC[C@H](c1ccccc1)N2 [Compound 35]
4,< 1,Cn1ccc(-n2c(=O)[nH]c3c(c2=O)CC[C@H](C2CCC(F)(F)CC2)N3)n1 [Compound 36]
5,< 1,CC1(n2c(=O)[nH]c3c(c2=O)CC[C@H](C2CCC(F)(F)CC2)N3)CC1 [Compound 37]
6,1 to 15,Cc1cccc(-n2c(=O)[nH]c3c(c2=O)CC[C@H](C2CCC(F)(F)CC2)N3)n1 [Compound 38]
7,1 to 15,COc1cccc(-n2c(=O)[nH]c3c(c2=O)CC[C@H](C2CCC(F)(F)CC2)N3)n1 [Compound 39]
8,1 to 15,O=c1[nH]c2c(c(=O)n1-c1cc(F)cc(F)c1)CC[C@H](C1CCCC1)N2 [Compound 40]
9,1 to 15,CC(C)n1c(=O)[nH]c2c(c1=O)CC[C@H](C1CC(F)(F)C1)N2 [Compound 41]
10,> 15,O=c1[nH]c2c(c(=O)n1-c1cc(F)cc(F)c1)CC[C@H](C1CC(F)(F)C1)N2 [Compound 42]
11,< 1,O=c1[nH]c2c(c(=O)n1-c1cccc(F)n1)CC[C@H](C1CCC(F)(F)CC1)N2 [Compound 43]
12,> 15,CC(C)[C@H]1CCc2c([nH]c(=O)n(-c3cc(F)cc(F)c3)c2=O)N1 [Compound 44]
13,< 1,O=c1[nH]c2c(c(=O)n1-c1ccccn1)CC[C@H](C1CCC(F)(F)CC1)N2 [Compound 45]
14,< 1,O=c1[nH]c2c(c(=O)n1-c1ccccc1)CC[C@H](C1CCC(F)(F)CC1)N2 [Compound 47]
15,1 to 15,O=c1[nH]c2c(c(=O)n1-c1ccccc1)CC[C@H](c1cccc(F)c1)N2 [Compound 49]
16,1 to 15,CC(C)n1c(=O)[nH]c2c(c1=O)CC[C@H](CC1CC(F)(F)C1)N2 [Compound 50]
17,1 to 15,O=c1[nH]c2c(c(=O)n1-c1cc(F)cc(F)c1)CC[C@H](CC1CC(F)(F)C1)N2 [Compound 51]
18,1 to 15,O=c1[nH]c2c(c(=O)n1-c1cc(F)cc(F)c1)CC[C@H](C1CCC(O)CC1)N2 (stereo partly drawn) [Compound 52]
19,1 to 15,C/C=C(\C)n1c(=O)[nH]c2c(c1=O)CC[C@H](c1ccccc1)N2 [Compound 55]
20,1 to 15,CC1(n2c(=O)[nH]c3c(c2=O)CC[C@H](c2ccccc2)N3)CC1 [Compound 56]
21,1 to 15,CCn1c(=O)[nH]c2c(c1=O)CC[C@H](c1ccccc1Cl)N2 [Compound 57]
22,> 15,CCn1c(=O)[nH]c2c(c1=O)CC[C@H](c1cccc(F)c1F)N2 [Compound 58]

row,IC50 [µM],Compound
1,1 to 15,COc1ccc([C@H]2CCc3c([nH]c(=O)n(C(C)C)c3=O)N2)cn1 [Compound 59]
2,1 to 15,O=c1[nH]c2c(c(=O)n1-c1cc(F)cc(F)c1)CC[C@H](c1cccc(F)c1)N2 [Compound 60]
3,1 to 15,CCn1c(=O)[nH]c2c(c1=O)CC[C@H](c1cccc(F)c1)N2 [Compound 61]
4,> 15,CC(C)n1c(=O)[nH]c2c(c1=O)CC[C@H](CC1CCOCC1)N2 [Compound 62]
5,1 to 15,O=c1[nH]c2c(c(=O)n1CC(F)(F)F)CC[C@H](c1ccccc1)N2 [Compound 63]
6,> 15,CCn1c(=O)[nH]c2c(c1=O)CC[C@H](c1ccccc1)N2 [Compound 64]
7,1 to 15,O=c1[nH]c2c(c(=O)n1-c1cc(F)cc(F)c1)CC[C@H](c1ccccc1)N2 [Compound 65]
8,< 1,CC(C)n1c(=O)[nH]c2c(c1=O)CC[C@H](Cc1ccccc1)N2 [Compound 66]
9,> 15,O=c1[nH]c2c(c(=O)n1-c1cc(F)cc(F)c1)C[C@H](c1ccccc1)N2 [Compound 71]
10,1 to 15,CC(C)n1c(=O)[nH]c2c(c1=O)CC[C@H](c1c(F)cccc1F)N2 [Compound 72]
11,1 to 15,O=c1[nH]c2c(c(=O)n1CC(F)F)CC[C@H](c1ccc(F)cc1)N2 [Compound 73]
12,1 to 15,CCn1c(=O)[nH]c2c(c1=O)CC[C@H](c1cc(F)ccc1F)N2 [Compound 74]
13,> 15,CCn1c(=O)[nH]c2c(c1=O)CC[C@H](c1c(F)cccc1F)N2 [Compound 75]
14,1 to 15,CC(C)n1c(=O)[nH]c2c(c1=O)CC[C@H](c1cccc(F)c1F)N2 [Compound 76]
15,1 to 15,CC(C)n1c(=O)[nH]c2c(c1=O)CC[C@H](c1cc(F)cc(F)c1)N2 [Compound 77]
16,< 1,CC[C@@H](C)n1c(=O)[nH]c2c(c1=O)CC[C@H](C1CCC(F)(F)CC1)N2 [Compound 78]
17,> 15,O=c1[nH]c2c(c(=O)n1-c1cc(F)cc(F)c1)C[C@@H](c1ccccc1)N2 [Compound 79]
18,1 to 15,CC(C)Cn1c(=O)[nH]c2c(c1=O)CC[C@H](c1ccc(F)c(F)c1)N2 [Compound 80]
19,1 to 15,O=c1[nH]c2c(c(=O)n1CC1CC1)CC[C@H](c1ccc(F)c(F)c1)N2 [Compound 82]
20,> 15,CCn1c(=O)[nH]c2c(c1=O)CC[C@H](c1ccc(F)c(F)c1)CN2 [Compound 84]
21,> 15,CC(C)n1c(=O)[nH]c2c(c1=O)CC[C@@H](c1ccc(F)c(F)c1)N2 [Compound 85]

row,Compound,IC50 [µM]
1,CC(C)n1c(=O)[nH]c2c(c1=O)CC[C@H](c1ccc(=O)[nH]c1)N2 [Compound 54],> 15
